Measured values reported in US20260356856A1, “KRAS G12S AND G12C INHIBITORS” (MIRATI THERAPEUTICS, INC., priority 2023, published 2026).

How the values were obtained:
Experiment in all cases: KRas binding assay, TR-FRET displacement of Cy5 labelled tracer
Details in all cases: 60-minute incubation at room temperature, 1% DMSO, pH 7.5
KRas G12S = target: T1, KRas G12S (Homo sapiens, UniProt P01116, G12S)
T1 construct: Biotinylated KRas (corresponding to amino acids 1-169, produced at Accelegan Inc.); biotin (biotinylated); purchased Accelegan Inc
Procedure: (§1) This Example illustrates that exemplary compounds of the present invention bind to KRas and are capable of displacing a labeled tracer ligand occupying the KRas binding site. KRas^WT, KRas^G12A, KRas^G12C, KRas^G12D, KRas^G12R, KRas^G12S, KRas^G12V, KRas^G13D, or KRas^Q61H was used in the assay.
(§2) The ability of a compound to bind to KRas was measured using a TR-FRET displacement assay. Biotinylated KRas (corresponding to amino acids 1-169, produced at Accelegan Inc.) was incubated with custom made Cy5 labelled tracer, terbium streptavidin (Cisbio Inc.) and compound (1% DMSO final) in buffer (50 mM HEPES, pH 7.5, 5 mM MgCl2, 0.005% Tween-20 and 1 mM DTT). After a 60-minute incubation at room temperature, the reaction was measured using a BMG LABTECH CLARIO star Plus via TR-FRET. […] The POC values were fit to a 4-parameter IC50 equation and the IC50 value reported.

KRas G12C = target: T2, KRas G12C (Homo sapiens, UniProt P01116, G12C)
T2 construct: Biotinylated KRas (corresponding to amino acids 1-169, produced at Accelegan Inc.); biotin (biotinylated); purchased Accelegan Inc
Procedure: as §1, §2

KRas WT = target: T3, KRas WT (Homo sapiens, UniProt P01116)
T3 construct: Biotinylated KRas (corresponding to amino acids 1-169, produced at Accelegan Inc.); biotin (biotinylated); purchased Accelegan Inc
Procedure: as §1, §2

T3 sequence (P01116 1-169 isoform P01116-2): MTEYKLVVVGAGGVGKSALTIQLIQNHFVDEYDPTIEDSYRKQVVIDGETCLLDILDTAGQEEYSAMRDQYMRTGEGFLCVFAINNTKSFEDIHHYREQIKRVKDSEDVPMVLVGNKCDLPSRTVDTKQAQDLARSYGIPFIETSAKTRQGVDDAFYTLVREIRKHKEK
T1 sequence (P01116 1-169 isoform P01116-2 G12S): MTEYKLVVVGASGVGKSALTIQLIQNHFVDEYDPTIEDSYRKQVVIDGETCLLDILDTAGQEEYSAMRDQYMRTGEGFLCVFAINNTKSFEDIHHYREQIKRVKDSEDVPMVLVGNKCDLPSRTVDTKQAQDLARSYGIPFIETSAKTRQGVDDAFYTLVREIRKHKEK
T2 sequence (P01116 1-169 isoform P01116-2 G12C): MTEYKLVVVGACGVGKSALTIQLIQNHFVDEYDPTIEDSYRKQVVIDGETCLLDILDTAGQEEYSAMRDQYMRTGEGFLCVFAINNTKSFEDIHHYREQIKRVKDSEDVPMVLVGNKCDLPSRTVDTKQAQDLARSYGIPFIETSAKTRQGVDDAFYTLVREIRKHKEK

Work on `O=C(Oc1ccccc1)C1CCN(c2nc(OCC34CCCN3CCC4)nc3c(F)c(-c4cccc5cccc(F)c45)ncc23)CC1` [Example 44, phenyl 1-(8-fluoro-7-(8-fluoronaphthalen-1-yl)-2-((tetrahydro-1H-pyrrolizin-7a(5H)-yl)methoxy)pyrido[4,3-d]pyrimidin-4-yl)piperidine-4-carboxylate] yielded an IC50 (KRas G12S) of 81100 nM, an IC50 (KRas G12C) of 1770 nM and an IC50 (KRas WT) of over 100000 nM.
In the case of `COC(=O)C1CCCN(c2nc(OCC34CCCN3CCC4)nc3c(F)c(-c4cccc5cccc(F)c45)ncc23)CC1` (stereo not drawn) [Example 49, methyl 1-(8-fluoro-7-(8-fluoronaphthalen-1-yl)-2-((tetrahydro-1H-pyrrolizin-7a(5H)-yl)methoxy)pyrido[4,3-d]pyrimidin-4-yl) azepane-4-carboxylate], the IC50 (KRas G12S) is reported as 54800 nM and the IC50 (KRas G12C) is reported as 65900 nM.
Work on `Cc1ccn(C(=O)C2CCN(c3nc(OCC45CCCN4CCC5)nc4c(F)c(-c5cccc6cccc(F)c56)ncc34)CC2)n1` [Example 10, (1-(8-fluoro-7-(8-fluoronaphthalen-1-yl)-2-((tetrahydro-1H-pyrrolizin-7a(5H)-yl)methoxy)pyrido[4,3-d]pyrimidin-4-yl)piperidin-4-yl)(3-methyl-1H-pyrazol-1-yl)methanone] yielded an IC50 (KRas G12S) of 4670 nM, an IC50 (KRas G12C) of 19600 nM and an IC50 (KRas WT) of 43900 nM.
Molecule `O=C(Oc1ccc(F)c(F)c1)[C@@H]1[C@@H]2CC[C@H]1CN(c1nc(OCC34CCCN3CCC4)nc3c(F)c(-c4cccc5cccc(F)c45)ncc13)C2` [Example 23, 3,4-difluorophenyl (1R,5S,8r)-3-(8-fluoro-7-(8-fluoronaphthalen-1-yl)-2-((tetrahydro-1H-pyrrolizin-7a(5H)-yl)methoxy)pyrido[4,3-d]pyrimidin-4-yl)-3-azabicyclo[3.2.1]octane-8-carboxylate] has an IC50 (KRas G12S) of 61600 nM, an IC50 (KRas G12C) of 34800 nM and an IC50 (KRas WT) of 11800 nM.
In the case of `O=C(OCC(F)(F)F)[C@@H]1[C@@H]2CC[C@H]1CN(c1nc(OCC34CCCN3CCC4)nc3c(F)c(-c4cccc5cccc(F)c45)ncc13)C2` [Example 18, 2,2,2-trifluoroethyl (1R,5S,8r)-3-(8-fluoro-7-(8-fluoronaphthalen-1-yl)-2-((tetrahydro-1H-pyrrolizin-7a(5H)-yl)methoxy)pyrido[4,3-d]pyrimidin-4-yl)-3-azabicyclo[3.2.1]octane-8-carboxylate], the IC50 (KRas G12S) is reported as 30000 nM, the IC50 (KRas G12C) is reported as 42100 nM and the IC50 (KRas WT) is reported as 7970 nM.
`O=C(Oc1cc(F)cc(F)c1)C1CCN(c2nc(OCC34CCCN3CCC4)nc3c(F)c(-c4cccc5cccc(F)c45)ncc23)CC1` [Example 33, 3,5-difluorophenyl 1-(8-fluoro-7-(8-fluoronaphthalen-1-yl)-2-((tetrahydro-1H-pyrrolizin-7a(5H)-yl)methoxy)pyrido[4,3-d]pyrimidin-4-yl)piperidine-4-carboxylate] was tested, and the IC50 (KRas G12S) was over 100000 nM, the IC50 (KRas G12C) was 10700 nM and the IC50 (KRas WT) was over 100000 nM.
For `N#Cc1ccccc1OC(=O)[C@@H]1[C@@H]2CC[C@H]1CN(c1nc(OCC34CCCN3CCC4)nc3c(F)c(-c4cccc5cccc(F)c45)ncc13)C2` [Example 21, 2-cyanophenyl (1R,5S,8r)-3-(8-fluoro-7-(8-fluoronaphthalen-1-yl)-2-((tetrahydro-1H-pyrrolizin-7a(5H)-yl)methoxy)pyrido[4,3-d]pyrimidin-4-yl)-3-azabicyclo[3.2.1]octane-8-carboxylate], the IC50 (KRas G12S) was over 100000 nM, the IC50 (KRas G12C) was 15900 nM and the IC50 (KRas WT) was 52200 nM.
`O=C(Oc1ccc(F)cc1F)C1CCN(c2nc(OCC34CCCN3CCC4)nc3c(F)c(-c4cccc5cccc(F)c45)ncc23)CC1` [Example 13, 2,4-difluorophenyl 1-(8-fluoro-7-(8-fluoronaphthalen-1-yl)-2-((tetrahydro-1H-pyrrolizin-7a(5H)-yl)methoxy)pyrido[4,3-d]pyrimidin-4-yl)piperidine-4-carboxylate] showed an IC50 (KRas G12S) of 39000 nM, an IC50 (KRas G12C) of 272 nM and an IC50 (KRas WT) of 28700 nM.
`N#Cc1ccccc1OC(=O)C1CCN(c2nc(OCC34CCCN3CCC4)nc3c(F)c(-c4cccc5cccc(F)c45)ncc23)CC1` [Example 27, 2-cyanophenyl 1-(8-fluoro-7-(8-fluoronaphthalen-1-yl)-2-((tetrahydro-1H-pyrrolizin-7a(5H)-yl)methoxy)pyrido[4,3-d]pyrimidin-4-yl)piperidine-4-carboxylate] showed an IC50 (KRas G12S) of over 100000 nM, an IC50 (KRas G12C) of 452 nM and an IC50 (KRas WT) of 89200 nM.
`O=C1OCCN1C(=O)C1CCN(c2nc(OCC34CCCN3CCC4)nc3c(F)c(-c4cccc5cccc(F)c45)ncc23)CC1` [Example 2, 3-(1-(8-fluoro-7-(8-fluoronaphthalen-1-yl)-2-((tetrahydro-1H-pyrrolizin-7a(5H)-yl)methoxy)pyrido[4,3-d]pyrimidin-4-yl)piperidine-4-carbonyl)oxazolidin-2-one] gave an IC50 (KRas G12S) of 72500 nM, an IC50 (KRas G12C) of over 100000 nM and an IC50 (KRas WT) of 73900 nM.
Work on `O=C(Oc1ccc(C(F)(F)F)cc1)C1CCN(c2nc(OCC34CCCN3CCC4)nc3c(F)c(-c4cccc5cccc(F)c45)ncc23)CC1` [Example 42, 4-(trifluoromethyl)phenyl 1-(8-fluoro-7-(8-fluoronaphthalen-1-yl)-2-((tetrahydro-1H-pyrrolizin-7a(5H)-yl)methoxy)pyrido[4,3-d]pyrimidin-4-yl)piperidine-4-carboxylate] yielded an IC50 (KRas G12S) of 68100 nM, an IC50 (KRas G12C) of 768 nM and an IC50 (KRas WT) of over 100000 nM.
`O=C(Oc1ccc(F)cc1)[C@H]1[C@@H]2C[C@H]1CN(c1nc(OCC34CCCN3CCC4)nc3c(F)c(-c4cccc5cccc(F)c45)ncc13)C2` [Example 8, 4-fluorophenyl (1R,5S,6s)-3-(8-fluoro-7-(8-fluoronaphthalen-1-yl)-2-((tetrahydro-1H-pyrrolizin-7a(5H)-yl)methoxy)pyrido[4,3-d]pyrimidin-4-yl)-3-azabicyclo[3.1.1]heptane-6-carboxylate] gave an IC50 (KRas G12S) of over 100000 nM, an IC50 (KRas G12C) of over 100000 nM and an IC50 (KRas WT) of over 100000 nM.
For `O=C(Oc1ccc(F)cc1)[C@@H]1[C@@H]2C[C@H]1CN(c1nc(OCC34CCCN3CCC4)nc3c(F)c(-c4cccc5cccc(F)c45)ncc13)C2` [Example 7, 4-fluorophenyl (1R,5S,6r)-3-(8-fluoro-7-(8-fluoronaphthalen-1-yl)-2-((tetrahydro-1H-pyrrolizin-7a(5H)-yl)methoxy)pyrido[4,3-d]pyrimidin-4-yl)-3-azabicyclo[3.1.1]heptane-6-carboxylate], the IC50 (KRas G12S) was 21200 nM, the IC50 (KRas G12C) was 20400 nM and the IC50 (KRas WT) was 24200 nM.
`O=C(Oc1ccc(F)c(F)c1)C1CCCN(c2nc(OCC34CCCN3CCC4)nc3c(F)c(-c4cccc5cccc(F)c45)ncc23)CC1` (stereo not drawn) [Example 48, 3,4-difluorophenyl 1-(8-fluoro-7-(8-fluoronaphthalen-1-yl)-2-((tetrahydro-1H-pyrrolizin-7a(5H)-yl)methoxy)pyrido[4,3-d]pyrimidin-4-yl) azepane-4-carboxylate] was tested, and the IC50 (KRas G12S) was 30100 nM and the IC50 (KRas G12C) was 2740 nM.
Work on `O=C(Oc1ccc(C(F)(F)F)cc1)C1CCCN(c2nc(OCC34CCCN3CCC4)nc3c(F)c(-c4cccc5cccc(F)c45)ncc23)CC1` (stereo not drawn) [Example 50, 4-(trifluoromethyl)phenyl 1-(8-fluoro-7-(8-fluoronaphthalen-1-yl)-2-((tetrahydro-1H-pyrrolizin-7a(5H)-yl)methoxy)pyrido[4,3-d]pyrimidin-4-yl) azepane-4-carboxylate] yielded an IC50 (KRas G12S) of 55600 nM and an IC50 (KRas G12C) of 3440 nM.
